Measurements reported in ChEMBL document CHEMBL4808207, “Macrocyclic Peptides as a Novel Class of NNMT Inhibitors: A SAR Study Aimed at Inhibitory Activity in the Cell” (ACS Med Chem Lett, 2021).
pIC50: −log10 of the molar value. Bridge positions count the residues as written; N and C are the ends. Square brackets hold non-standard residues; d marks the D form. Peptide text beside a SMILES is read from it. Phe(4-CONH2) = NC(=O)c1ccc(C[C@H](N)C(=O)O)cc1; NMeY = CN[C@@H](Cc1ccc(O)cc1)C(=O)O; NMeF = CN[C@@H](Cc1ccccc1)C(=O)O; 3Pal = N[C@@H](Cc1cccnc1)C(=O)O; Tic = O=C(O)[C@@H]1Cc2ccccc2CN1

How the values were obtained:
[1] = target: T1, Nicotinamide N-methyltransferase (Homo sapiens, UniProt P40261); test: Inhibition of human recombinant NNMT using nicotinamide and SAM as substrate assessed as reduction in 1-methyl-nicotinamide formation incubated for 22 to 24 hrs by RapidFire Mass spectroscopy
T1 sequence (P40261 whole entry): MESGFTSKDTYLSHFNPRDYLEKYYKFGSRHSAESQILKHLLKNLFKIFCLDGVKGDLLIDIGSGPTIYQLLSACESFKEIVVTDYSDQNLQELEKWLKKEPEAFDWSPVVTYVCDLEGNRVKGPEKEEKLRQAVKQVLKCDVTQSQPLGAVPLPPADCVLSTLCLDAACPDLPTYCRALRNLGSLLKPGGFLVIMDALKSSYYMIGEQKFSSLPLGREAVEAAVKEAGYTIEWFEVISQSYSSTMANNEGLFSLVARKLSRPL

[2] = target: T2, Nicotinamide N-methyltransferase (Mus musculus, UniProt O55239); test: Inhibition of mouse recombinant NNMT using nicotinamide and SAM as substrate assessed as reduction in 1-methyl-nicotinamide formation incubated for 22 to 24 hrs by RapidFire Mass spectroscopy
T2 sequence (O55239 whole entry): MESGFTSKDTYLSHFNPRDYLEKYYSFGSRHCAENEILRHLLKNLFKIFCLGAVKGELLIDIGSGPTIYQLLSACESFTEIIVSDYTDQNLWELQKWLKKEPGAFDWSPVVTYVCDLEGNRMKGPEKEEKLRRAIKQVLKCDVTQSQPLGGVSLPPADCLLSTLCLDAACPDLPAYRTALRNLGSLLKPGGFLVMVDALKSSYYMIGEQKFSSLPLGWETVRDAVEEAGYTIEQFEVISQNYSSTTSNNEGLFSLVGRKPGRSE

[3] = target: T2, Nicotinamide N-methyltransferase; test: Inhibition of mouse recombinant NNMT using nicotinamide and SAM as substrate assessed as reduction in 1-methyl-nicotinamide formation incubated for 2 hrs by RapidFire Mass spectroscopy

| pIC50 [1] | pIC50 [2] | pIC50 [3] | SMILES |
| --- | --- | --- | --- |
| < 4.00 | < 4.00 | – | CN1C(=O)CSC[C@@H](C(N)=O)NC(=O)[C@H](Cc2ccc(C(N)=O)cc2)NC(=O)[C@@H]2Cc3ccccc3CN2C(=O)[C@@H]2CCCN2C(=O)[C@H](Cc2c[nH]cn2)NC(=O)[C@H](Cc2ccc(O)cc2)NC(=O)[C@@H]2CCCN2C(=O)[C@@H]1Cc1ccccc1 ({CH2CO}-[NMeF]PYHP[Tic][Phe(4-CONH2)]C-NH2; thioether N-8) |
| < 4.00 | < 4.00 | – | CN1C(=O)CSC[C@@H](C(N)=O)NC(=O)[C@H](Cc2ccc(C(N)=O)cc2)NC(=O)[C@@H]2Cc3ccccc3CN2C(=O)[C@@H]2CCCN2C(=O)[C@H](Cc2cccnc2)NC(=O)[C@H](Cc2ccc(O)cc2)NC(=O)[C@@H]2CCCN2C(=O)[C@@H]1Cc1ccccc1 ({CH2CO}-[NMeF]PY[3Pal]P[Tic][Phe(4-CONH2)]C-NH2; thioether N-8) |
| – | – | 6.61 | CC[C@H](C)[C@@H]1NC(=O)[C@H](CC(C)C)NC(=O)[C@@H]2CCCN2C(=O)[C@H](Cc2ccccc2)NC(=O)CSC[C@@H](C(=O)NCC(N)=O)NC(=O)CNC(=O)[C@H](CCCCN)NC(=O)[C@H](CCCNC(=N)N)NC(=O)[C@@H]2CCCN2C(=O)[C@H](Cc2ccccc2)NC1=O ({CH2CO}-FPLIFPRKGCG-NH2; thioether N-10) |
| – | – | < 4.52 | CC[C@H](C)[C@@H]1NC(=O)[C@H](CC(C)C)NC(=O)[C@@H]2CCCN2C(=O)[C@H](Cc2ccccc2)NC(=O)CSC[C@@H](C(N)=O)NC(=O)CNC(=O)[C@H](CCCCN)NC(=O)[C@H](CCCNC(=N)N)NC(=O)[C@@H]2CCCN2C(=O)[C@H](Cc2ccccc2)NC1=O ({CH2CO}-FPLIFPRKGC-NH2; thioether N-10) |
| < 4.52 | < 4.52 | – | CN1C(=O)[C@@H]2CCCN2C(=O)[C@H](Cc2ccccc2)NC(=O)CSC[C@@H](C(N)=O)NC(=O)[C@H](Cc2ccc(C(N)=O)cc2)NC(=O)[C@@H]2Cc3ccccc3CN2C(=O)[C@@H]2CCCN2C(=O)[C@H](CCCNC(=N)N)NC(=O)[C@@H]1Cc1ccc(O)cc1 ({CH2CO}-FP[NMeY]RP[Tic][Phe(4-CONH2)]C-NH2; thioether N-8) |
